We go through 2 compounds from publication PMC1764428, “Secretion and properties of a hybrid Kluyveromyces lactis-Aspergillus niger β-galactosidase” (Microbial Cell Factories, 2006).

Assay [1] has as its system T1, hybrid protein LAC4-LACA-KpnI.
T1 construct: single-chain fusion: K. lactis LAC4 without its 297 C-terminal residues (fifth domain), replaced by 274 C-terminal residues of A. niger LACA (from pVK1.1) at KpnI site; expressed in K. lactis MW190-9B; crude extract
The experiment in a line: o-nitrophenol release, Lineweaver-Burk. Conditions: crude extract (30 μg protein); buffer Z with 1.6 mM MgSO4; ONPG 2-12 mM. The assay is classed as biochemical, Kluyveromyces lactis;Aspergillus niger.

Assay [2] shares this test system. The experiment in a line: D-galactose release by coupled galactose dehydrogenase / NADH kit at […] nm, Lineweaver-Burk. It counts as biochemical, Kluyveromyces lactis;Aspergillus niger. Conditions: crude extract (60 μg protein); lactose 5-160 mM.

One may read the Km as the substrate concentration at which the rate is half of its maximum.

Take `O=[N+]([O-])c1ccccc1O[C@@H]1O[C@H](CO)[C@H](O)[C@H](O)[C@H]1O` [ONPG]: the Michaelis-Menten constant (Km) in assay [1] amounted to 0.8 mM.
Regarding `OC[C@H]1O[C@@H](O[C@H]2[C@H](O)[C@@H](O)C(O)O[C@@H]2CO)[C@H](O)[C@@H](O)[C@H]1O` (some centres unmarked) [lactose], in assay [2], the Km amounted to 8.7 mM.
